In patent US20210163567A1, “Method of Delivering a Centrally-Acting Peptide Derivative, and Method of Treating a Neuropsychiatric Disorder” (TOKYO UNIVERSITY OF SCIENCE FOUNDATION, priority 2014, published 2021):
Where “and” joins values, the source holds several entries; their conditions need not be identical. Equal entries are not always repeated. Ends that are not written are not given here.

Assays:
[1] = tested on: learning disorder-induced mouse; assay: Y-maze test on learning disorder-induced (LPS) mouse; assay type: in vivo; settings: for Learning ability in Y-maze test: LPS-administered mice, Examples 6 and 7
Experimental: The learning disorder-alleviating activity of the GLP-1 derivative was evaluated by a Y-maze test on a learning disorder-induced mouse, using the FOS 12 solution of GLP-1 derivative.
As the learning disorder-induced mouse, ddY mice (5-7 week old, male, n=5) were administered with lipopolysaccharide (LPS) by 10 μg at three days before the test. Fifteen minutes before the administration of LPS, the mice were administered with GLP-1 derivative by 3 μg with the FOS 12 solution of GLP-1 derivative.
The Y-maze test was performed by using a device having three arms of the same size. The number of times that the mouse entered the different arm for consecutive three times was counted, and the result was divided by a number obtained by deducting 2 from the total number of times of entering the arm. The result was multiplied by 100, and used as a spontaneous alternation behavior (%).
(§1) As a control, mice (5-7 week old, male, n=5 or 7), intranasally administered a solvent without GLP-1 derivative by 4 μL 15 minutes before the administration of LPS, were subjected to the same test as the above. Further, mice that were not administered with LPS (vehicle) were subjected to the same test as the above. The error bar represents mean±SE (n=5 or 7), and the statistical processing was performed by Mann-Whitney test (*P<0.05, **P<0.01).
As the learning disorder-induced mouse, ddY mice (5-7 week old, male, n=6) administered with lipopolysaccharide (LPS) by 10 μg three days before the test were used. Fifteen minutes before the administration of LPS, the mice were administered with NmU derivative by 3 μg with the FOS 12 solution of NmU derivative. A Y-maze test was performed in the same manner as Example 6, and a spontaneous alternation behavior (%) was calculated from the measurement results.
as §1, with “n=6), which were” for “n=5 or 7),”, “NmU” for “GLP-1”, “mice” for “mice that were”, “(n=6),” for “(n=5 or 7),”, “(*P<0.01, **P<0.001).” for “(*P<0.05, **P<0.01).”

rats = assay: Forced-swim test on rats (anti-depression activity); assay type: in vivo, rat; settings: intranasal 18 μg/day
Experimental: The anti-depression activity of the GLP-2 derivative was evaluated by a forced-swim test on rats using the DMSO solution of GLP-2 derivative. The forced-swim test was performed in accordance with the following procedure.
One hour before the test, rats (8-10 week old, male, n=6) were transferred to the laboratory for habituation. The rats were intranasally administered with the DMSO solution of GLP-2 derivative by 18 μg/day for two days, 30 minutes before the test. The rats were allowed to swim for 15 minutes, one by one in a transparent plastic cylinder with a diameter of 18 cm and a height of 50 cm filled with water of 25±1° C. to a height of 30 cm. During the swimming, the immobility time (s) was measured. The rats after the test were wiped with a Kimtowel and placed back to a cage. The test was performed for consecutive 2 days, day 1 as a preliminary test and day 2 as a main test. As a control, rats (8-10 week old, male, n=6) were intranasally administered with a solvent without GLP-2 derivative by 10 μL and subjected to a forced-swim test in the same manner. The error bar represents mean±SE (n=6), and the statistical processing was performed by Mann-Whitney test (*P<0.05). […]

ddY mice [2] = assay: Forced-swim test on a mouse; assay type: in vivo; settings: Example 3, mouse forced-swim test
Experimental: The anti-depression activity of the GLP-2 derivative was evaluated by a forced-swim test on a mouse. The test was performed by the following process.
Twenty-four hours before the test, ddY mice (5-7 week old, male, n=12) were subjected to a preliminary swimming for 15 minutes. The mice were administered GLP-2 derivative by 3.6 μg with the DMSO solution, on the day before the test and on the day for the test, respectively. Then, the test was performed in the same manner as Example 1, and the immobility time (s) was measured. As a control, mice (5-7 week old, male, n=12) were administered with a solution without GLP-2 derivative were subjected to a forced-swim test in the same manner. The error bar represents mean±SE (n=12), and the statistical processing was performed by Mann-Whitney test (*P<0.05).

ddY mice [3] = assay: Tail suspension test on a mouse; assay type: in vivo; settings: Example 4, mouse tail suspension test
Experimental: The anti-depression activity of the GLP-2 derivative was evaluated by a tail suspension test on a mouse, using the DMSO solution of GLP-2 derivative as prepared in Example 3. The test was performed by the following process.
On the day before the test and on the day for the test, ddY mice (5-7 week old, male, n=9) were administered with the GLP-derivative by 3.6 μg, respectively, with the DMSO solution. Then, the mice were suspended by the tail and the immobility time (s) was measured. As a control, mice (5-7 week old, male, n=9) were intranasally administered with a solvent without GLP-2 derivative and subjected to a tail suspension test in the same manner. The error bar represents mean±SE (n=9), and the statistical processing was performed by Mann-Whitney test (*P<0.05).

depression model mouse = assay: Forced-swim test on ACTH-induced treatment-resistant depression model mouse; assay type: in vivo; settings: Example 5, treatment-resistive depression model
Experimental: The anti-depression activity of the GLP-2 derivative was evaluated by a forced-swim test on a depression model […] using the DMSO solution of GLP-2 derivative as prepared in Example 3.
As the depression model mouse, ddY mice (5-7 week old, male, n=11) were administered with adrenocorticotropic hormone (ACTH) to induce an enhanced state of hypothalamic-pituitary-adrenal axis (HPA system). The administration of ACTH was performed by 0.45 mg/kg/day for consecutive 14 days.
The forced-swim test was performed in the same manner as Example 3 and the immobility time (s) was measured. The mice were intranasally administered with GLP-2 derivative by 3.6 μg as a DMSO solution of GLP-2 derivative, each day for consecutive 6 days until the day for the test. As a control, mice (5-7 week old, male, n=11) were administered with a solvent without GLP-2 derivative by 4 μL each day for consecutive 6 days and subjected to a forced-swim test in the same manner. The error bar represents mean±SE (n=11), and the statistical processing was performed by Mann-Whitney test (*P<0.01).

## FFFFG-(R)8-(G)2-YKVNEYQGPVAPSGGFFLFRPRN-NH2 (not fully specified (N-terminus)) [NmU derivative, derivative of neuromedin U with PAS (FFFFG), octa-arginine and GG spacer]
[1]; Example 7: LPS 10 μg three days before test, NmU derivative 3 μg 15 minutes before LPS, individual animals n=6
  Alternation behavior (%): 58.6% and 72.4% and 66.7% and 60.0% and 74.1% and 69.4%
[1]; Example 7: Vehicle (mice not administered LPS), NmU derivative 3 μg, individual animals n=6
  Alternation behavior (%): 65.9% and 70.5% and 69.0% and 63.9% and 67.8% and 78.8%

## FFLIPKG-(R)8-(G)2-HAEGTFTSDVSSYLEGQAAKEFIAWLVKGR-NH2 [GLP-1 derivative]
[1]; Example 6: LPS 10 μg three days before test, GLP-1 derivative 3 μg 15 minutes before LPS, individual animals n=5
  Alternation behavior (%): 64.3% and 66.7% (2×) and 67.9% and 67.4%
[1]; Example 6: Vehicle (mice not administered LPS), GLP-1 derivative 3 μg, individual animals n=5
  Alternation behavior (%): 56.4% and 72.2% and 70.3% and 78.6% and 67.6%

## HADGSFSDEMNTILDNLAARDFINWLIQTKITD [GLP-2]
rats; Comparative Example 1: GLP-2 alone, individual animals n=6
  Immobility time: 46 s and 15 s and 45 s and 41 s and 30 s and 33 s
rats; Mann-Whitney test
  Immobility time / anti-depression activity versus control group: no significant difference in the anti-depression activity
ddY mice [2]
  Effect of suppressing depression: an effect of suppressing depression is obtained
ddY mice [3]
  Effect of suppressing depression: an effect of suppressing depression is obtained
Depression model mouse
  Effect of suppressing depression: an effect of suppressing depression is obtained

## HAEGTFTSDVSSYLEGQAAKEFIAWLVKGR-NH2 [GLP-1, glucagon-like peptide-1; label printed in b156 where the GLP-1 derivative is probably meant, reference compound]
[1]
  Learning ability in Y-maze test: learning ability is significantly ameliorated

## YKVNEYQGPVAPSGGFFLFRPRN-NH2 [NmU, neuromedin U; label printed in b156 where the NmU derivative is probably meant, reference compound]
[1]
  Learning ability in Y-maze test: learning ability is significantly ameliorated
